Reference: patent publication US20250325677A1, “STAT6 DEGRADERS” (Gilead Sciences, Inc., priority 2024, published 2025)

Molecular target: STAT6 (Homo sapiens (Human), UniProt P42226)
Test: STAT6 degrader assay (HiBiT, HeLa LgBiT clone 4.14)
Assay type: cell-based
Details: HeLa LgBiT clone 4.14, 4-24 h; for DC50: geometric mean, given for compounds with >80% Emax, read-out: STAT6 degradation DC50; for Emax: read-out: STAT6 degradation Emax (%)
Experimental: This was a HiBit based assay. A HeLa cell line stably transfected with a small protein, LgBit (Large Bit) was obtained from Promega. These cells express endogenous STAT6. A small 11 amino acid gene sequence (HiBiT) was inserted in the STAT6 gene using CRISPR technology. Once STAT6 protein is expressed in the cells, the HiBiT sequence will bind the LgBit in the cells resulting in a functional NanoBiT protein, giving a luminescent tag to STAT6, see FIG. 2.
Single cell clones were prepared and the clone 4.14 was selected for the assay based on that clone showing high luminescence, high STAT6 phosphorylation upon stimulation with IL-4, and inhibition of luminescence when cells were treated with STAT6 siRNA.
HeLa LgBiT clone 4.14 cells were suspended in DMEM with 10% FCS, 1% Pen/Strep, Na-pyrovate and Hygromycin B, at a concentration of 1.25*105 cells pr mL. 5000 cells were added pr well of a 384 well plate and 20 nL of compound was added by Echo® liquid handler. NN6394A (terfenadine, a toxic compound) was added to control wells at 50 μM concentration to establish the assay window. In these wells the cells are dead which equals 100% degradation of STAT6.
After 4-24 h of incubation at 37° C. under 5% CO2/95% air, 5 μL substrate (Nano-GLO®) was added to the wells and the plates were centrifuged and incubated for 0.5 h.
The luminescence in the wells as a measure of non-degraded STAT6 was measured in a plate reader (BMG Pherastar FSX). The measured DC50 (in nM) was determined.
The dose-response curves Examples 3p1, 3e50, 3e17, and 3e51 are shown below (where percent degradation is plotted vs. test compound concentration in M on a log-scale).

Sequence of STAT6 (P42226 whole entry): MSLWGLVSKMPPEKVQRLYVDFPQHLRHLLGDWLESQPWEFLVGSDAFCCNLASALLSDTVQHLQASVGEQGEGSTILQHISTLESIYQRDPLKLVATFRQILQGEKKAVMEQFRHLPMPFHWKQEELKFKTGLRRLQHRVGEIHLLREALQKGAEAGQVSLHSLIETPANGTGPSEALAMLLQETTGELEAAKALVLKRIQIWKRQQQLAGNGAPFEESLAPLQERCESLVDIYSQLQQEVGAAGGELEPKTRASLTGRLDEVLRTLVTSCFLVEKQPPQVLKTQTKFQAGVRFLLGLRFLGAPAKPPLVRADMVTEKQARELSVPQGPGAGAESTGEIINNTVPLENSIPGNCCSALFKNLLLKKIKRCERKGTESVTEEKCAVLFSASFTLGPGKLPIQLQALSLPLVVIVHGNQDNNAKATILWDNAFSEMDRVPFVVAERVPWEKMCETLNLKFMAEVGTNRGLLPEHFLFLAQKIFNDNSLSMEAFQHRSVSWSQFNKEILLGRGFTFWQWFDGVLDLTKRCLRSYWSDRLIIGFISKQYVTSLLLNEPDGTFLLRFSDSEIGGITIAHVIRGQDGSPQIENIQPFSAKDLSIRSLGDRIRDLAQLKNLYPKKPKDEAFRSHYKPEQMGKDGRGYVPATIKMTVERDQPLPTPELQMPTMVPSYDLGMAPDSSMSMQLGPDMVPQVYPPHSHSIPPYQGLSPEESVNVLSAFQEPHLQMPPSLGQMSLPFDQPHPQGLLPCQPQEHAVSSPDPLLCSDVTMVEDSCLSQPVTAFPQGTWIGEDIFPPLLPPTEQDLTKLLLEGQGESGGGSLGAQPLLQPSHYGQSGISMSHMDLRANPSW

Compound | DC50 | further results
3-(4-((4-((1-(4-(1-((4-(1H-indazol-5-yl)-1-methyl-1H-pyrrolo[2,3-b]pyridin-2-yl)methyl)-piperidin-4-yl)benzoyl)piperidin-4-yl)methyl)piperidin-1-yl)methyl)-3-(2-methoxyethyl)-2-oxo-2,3-dihydro-1H-benzo[d]imidazol-1-yl)piperidine-2,6-dione [Example 3i2] | – | STAT6 degradation Emax (%): 40-50%
CNc1ccc(-c2ccnc3c2cc([C@H](C)N2CCC(c4ccc(C(=O)N5CCC(CN6CCN(Cc7ccc8c(c7)n(C)c(=O)n8[C@@H]7CCC(=O)NC7=O)C[C@@H]6C)CC5)cc4)CC2)n3C)cn1 (single isomer, unassigned) [Example 3h3] | 1.1 nM | –
Cc1cc(C(=O)N2CCC(CN3CCN(Cc4ccc5c(c4)n(C4CC4)c(=O)n5[C@H]4CCC(=O)NC4=O)C[C@@H]3C)CC2)cc(F)c1C1=CCN([C@@H](C)c2cc3c(-c4ccc(N)nc4)ccnc3n2C)CC1 (single isomer, unassigned) [Example 3h16] | 1.6 nM | –
Cc1cc(C(=O)N2CCC(CN3CCN(Cc4ccc5c(c4)n(C4CC4)c(=O)n5[C@@H]4CCC(=O)NC4=O)C[C@@H]3C)CC2)cc(F)c1C1=CCN([C@@H](C)c2cc3c(-c4ccc(N)nc4)ccnc3n2C)CC1 (single isomer, unassigned) [Example 3h17] | 0.8 nM | –
Cn1c(CN2CCC(c3ccc(C(=O)N4CCC(OCC#Cc5cccc6c5n(C)c(=O)n6C5CCC(=O)NC5=O)CC4)cc3)CC2)cc2c(-c3ccc4[nH]ncc4c3)ccnc21 (stereo not shown) [Example 3a1, 3-(4-(3-((1-(4-(1-((4-(1H-indazol-5-yl)-1-methyl-1H-pyrrolo[2,3-b]pyridin-2-yl)methyl)piperidin-4-yl)benzoyl)piperidin-4-yl)oxy)prop-1-yn-1-yl)-3-methyl-2-oxo-2,3-dihydro-1H-benzo[d]imidazol-1-yl)piperidine-2,6-dione] | 4.9 nM | –
Cn1c(CN2CCC(c3ccc(C(=O)N4CCC(OCC#Cc5ccc6c(c5)n(C)c(=O)n6C5CCC(=O)NC5=O)CC4)cc3)CC2)cc2c(-c3ccc4[nH]ncc4c3)ccnc21 (stereo not shown) [Example 3b1, 3-(5-(3-((1-(4-(1-((4-(1H-indazol-5-yl)-1-methyl-1H-pyrrolo[2,3-b]pyridin-2-yl)methyl)piperidin-4-yl)benzoyl)piperidin-4-yl)oxy)prop-1-yn-1-yl)-3-methyl-2-oxo-2,3-dihydro-1H-benzo[d]imidazol-1-yl)piperidine-2,6-dione] | 2.4 nM | –
Cn1c(CN2CCC(c3ccc(C(=O)N4CCC(CN5CCC(c6ccc7c(c6)n(C)c(=O)n7C6CCC(=O)NC6=O)CC5)CC4)cc3)CC2)cc2c(-c3ccc4[nH]ncc4c3)ccnc21 (stereo not shown) [Example 3d1, 3-(5-(1-((1-(4-(1-((4-(1H-indazol-5-yl)-1-methyl-1H-pyrrolo[2,3-b]pyridin-2-yl)methyl)piperidin-4-yl)benzoyl)piperidin-4-yl)methyl)piperidin-4-yl)-3-methyl-2-oxo-2,3-dihydro-1H-benzo[d]imidazol-1-yl)piperidine-2,6-dione] | – | Emax: 50 to 60%
Cn1c(CN2CCC(c3ccc(C(=O)N4CCC(CN5CCN(Cc6ccc7c(c6)n(C)c(=O)n7C6CCC(=O)NC6=O)CC5)CC4)cc3)CC2)cc2c(-c3ccc4[nH]ncc4c3)ccnc21 (stereo not shown) [Example 3e1, 3-(5-((4-((1-(4-(1-((4-(1H-indazol-5-yl)-1-methyl-1H-pyrrolo[2,3-b]pyridin-2-yl)methyl)piperidin-4-yl)benzoyl)piperidin-4-yl)methyl)piperazin-1-yl)methyl)-3-methyl-2-oxo-2,3-dihydro-1H-benzo[d]imidazol-1-yl)piperidine-2,6-dione] | 0.6 nM | –
Cn1c(CN2CCC(c3ccc(C(=O)N4CCC(CN5CCN(Cc6ccc7c(c6)n(C6CC6)c(=O)n7C6CCC(=O)NC6=O)CC5)CC4)cc3)CC2)cc2c(-c3ccc4[nH]ncc4c3)ccnc21 (stereo not shown) [Example 3e6, 3-(5-((4-((1-(4-(1-((4-(1H-indazol-5-yl)-1-methyl-1H-pyrrolo[2,3-b]pyridin-2-yl)methyl)piperidin-4-yl)benzoyl)piperidin-4-yl)methyl)piperazin-1-yl)methyl)-3-cyclopropyl-2-oxo-2,3-dihydro-1H-benzo[d]imidazol-1-yl)piperidine-2,6-dione] | 1.4 nM | –
COCCn1c(=O)n(C2CCC(=O)NC2=O)c2ccc(CN3CCN(CC4CCN(C(=O)c5ccc(C6CCN(Cc7cc8c(-c9ccc(N)nc9)ccnc8n7C)CC6)cc5)CC4)CC3)cc21 (stereo not shown) [Example 3e7, 3-(5-((4-((1-(4-(1-((4-(6-aminopyridin-3-yl)-1-methyl-1H-pyrrolo[2,3-b]pyridin-2-yl)methyl)piperidin-4-yl)benzoyl)piperidin-4-yl)methyl)piperazin-1-yl)methyl)-3-(2-methoxyethyl)-2-oxo-2,3-dihydro-1H-benzo[d]imidazol-1-yl)piperidine-2,6-dione] | 9 nM | –
C[C@@H]1CN(Cc2ccc3c(c2)n(C)c(=O)n3C2CCC(=O)NC2=O)CCN1CC1CCN(C(=O)c2ccc(C3CCN(Cc4cc5c(-c6ccc(N)nc6)ccnc5n4C)CC3)cc2)CC1 (stereo partly drawn) [Example 3e8, 3-(5-(((R)-4-((1-(4-(1-((4-(6-aminopyridin-3-yl)-1-methyl-1H-pyrrolo[2,3-b]pyridin-2-yl)methyl)piperidin-4-yl)benzoyl)piperidin-4-yl)methyl)-3-methylpiperazin-1-yl)methyl)-3-methyl-2-oxo-2,3-dihydro-1H-benzo[d]imidazol-1-yl)piperidine-2,6-dione] | – | Emax: 50 to 60%
C[C@@H](c1cc2c(-c3ccc(N)nc3)ccnc2n1C)N1CCC(c2ccc(C(=O)N3CCC(CN4CCN(Cc5ccc6c(c5)n(C5CC5)c(=O)n6C5CCC(=O)NC5=O)CC4)CC3)cc2)CC1 (stereo partly drawn) [Example 3e10, 3-(5-((4-((1-(4-(1-((S)-1-(4-(6-aminopyridin-3-yl)-1-methyl-1H-pyrrolo[2,3-b]pyridin-2-yl)ethyl)piperidin-4-yl)benzoyl)piperidin-4-yl)methyl)piperazin-1-yl)methyl)-3-cyclopropyl-2-oxo-2,3-dihydro-1H-benzo[d]imidazol-1-yl)piperidine-2,6-dione] | – | Emax: < 20%
C[C@@H](c1cc2c(-c3ccc4[nH]ncc4c3)ccnc2n1C)N1CCC(c2ccc(C(=O)N3CCC(CN4CCN(Cc5ccc6c(c5)n(C5CC5)c(=O)n6C5CCC(=O)NC5=O)CC4)CC3)cc2)CC1 (stereo partly drawn) [Example 3e11, 3-(5-((4-((1-(4-(1-((S)-1-(4-(1H-indazol-5-yl)-1-methyl-1H-pyrrolo[2,3-b]pyridin-2-yl)ethyl)piperidin-4-yl)benzoyl)piperidin-4-yl)methyl)piperazin-1-yl)methyl)-3-cyclo-propyl-2-oxo-2,3-dihydro-1H-benzo[d]imidazol-1-yl)piperidine-2,6-dione] | 0.9 nM | –
Cc1cc(C(=O)N2CCC(CN3CCN(Cc4ccc5c(c4)n(C)c(=O)n5C4CCC(=O)NC4=O)CC3)CC2)cc(C)c1C1=CCN(Cc2cc3c(-c4ccc(N)nc4)ccnc3n2C)CC1 (stereo not shown) [Example 3e12, 3-(5-((4-((1-(4-(1-((4-(6-aminopyridin-3-yl)-1-methyl-1H-pyrrolo[2,3-b]pyridin-2-yl)methyl)-1,2,3,6-tetrahydropyridin-4-yl)-3,5-dimethylbenzoyl)piperidin-4-yl)methyl)piperazin-1-yl)methyl)-3-methyl-2-oxo-2,3-dihydro-1H-benzo[d]imidazol-1-yl)piperidine-2,6-dione] | 0.9 nM | –
Cn1c(CN2CCC(c3ccc(C(=O)N4CCC(CN5CCN(Cc6ccc7c(c6F)n(C)c(=O)n7C6CCC(=O)NC6=O)CC5)CC4)cc3)CC2)cc2c(-c3ccc(N)nc3)ccnc21 (stereo not shown) [Example 3e14, 3-(5-((4-((1-(4-(1-((4-(6-aminopyridin-3-yl)-1-methyl-1H-pyrrolo[2,3-b]pyridin-2-yl)methyl)piperidin-4-yl)benzoyl)piperidin-4-yl)methyl)piperazin-1-yl)methyl)-4-fluoro-3-methyl-2-oxo-2,3-dihydro-1H-benzo[d]imidazol-1-yl)piperidine-2,6-dione] | 1.5 nM | –
CC(C)[C@H]1CN(Cc2ccc3c(c2)n(C)c(=O)n3C2CCC(=O)NC2=O)CCN1CC1CCN(C(=O)c2ccc(C3CCN([C@@H](C)c4cc5c(-c6ccc(N)nc6)ccnc5n4C)CC3)cc2)CC1 (stereo partly drawn) [Example 3e21, 3-(5-(((S)-4-((1-(4-(1-((S)-1-(4-(6-aminopyridin-3-yl)-1-methyl-1H-pyrrolo[2,3-b]pyridin-2-yl)ethyl)piperidin-4-yl)benzoyl)piperidin-4-yl)methyl)-3-iso-propylpiperazin-1-yl)methyl)-3-methyl-2-oxo-2,3-dihydro-1H-benzo[d]imidazol-1-yl)piperidine-2,6-dione] | 2.8 nM | –
